In patent publication US9505767B2, “Pyrazolo[1,5-A]pyrimidin-7(4H)-onehistone demethylase inhibitors” (Genentech, Inc., priority 2013, dated 2016):

Biological target: T1, KDM5A (Homo sapiens, UniProt P29375)
T1 construct: Full length recombinant Flag tagged KDM5A protein was purified from Sf9 insect cells; Flag; made in house; host or cells: Sf9 insect cells
Assay: KDM5A Demethylase Assay (TR-FRET Assay-B)
Assay type: biochemical
Conditions: full length recombinant Flag tagged KDM5A, 2 nM, TrisCl pH 7.4, 3.0 μM α-ketoglutarate, read-out: B KDM5A HTRF (IC50)
Procedure: Full length recombinant Flag tagged KDM5A protein was purified from Sf9 insect cells. The demethylation reaction buffer contained 50 mM TrisCl pH 7.4, 0.01% Triton X-100, 0.025 mg/mL BSA, 1 mM ascorbate, 2 mM TCEP, 3.0 μM α-ketoglutarate, and 50 μM Fe2(NH4)2(SO4)2. […] After a one hour incubation assays were read on a Perkin-Elmer Envision equipped with a laser source and appropriate filters.

T1 sequence (P29375 whole entry): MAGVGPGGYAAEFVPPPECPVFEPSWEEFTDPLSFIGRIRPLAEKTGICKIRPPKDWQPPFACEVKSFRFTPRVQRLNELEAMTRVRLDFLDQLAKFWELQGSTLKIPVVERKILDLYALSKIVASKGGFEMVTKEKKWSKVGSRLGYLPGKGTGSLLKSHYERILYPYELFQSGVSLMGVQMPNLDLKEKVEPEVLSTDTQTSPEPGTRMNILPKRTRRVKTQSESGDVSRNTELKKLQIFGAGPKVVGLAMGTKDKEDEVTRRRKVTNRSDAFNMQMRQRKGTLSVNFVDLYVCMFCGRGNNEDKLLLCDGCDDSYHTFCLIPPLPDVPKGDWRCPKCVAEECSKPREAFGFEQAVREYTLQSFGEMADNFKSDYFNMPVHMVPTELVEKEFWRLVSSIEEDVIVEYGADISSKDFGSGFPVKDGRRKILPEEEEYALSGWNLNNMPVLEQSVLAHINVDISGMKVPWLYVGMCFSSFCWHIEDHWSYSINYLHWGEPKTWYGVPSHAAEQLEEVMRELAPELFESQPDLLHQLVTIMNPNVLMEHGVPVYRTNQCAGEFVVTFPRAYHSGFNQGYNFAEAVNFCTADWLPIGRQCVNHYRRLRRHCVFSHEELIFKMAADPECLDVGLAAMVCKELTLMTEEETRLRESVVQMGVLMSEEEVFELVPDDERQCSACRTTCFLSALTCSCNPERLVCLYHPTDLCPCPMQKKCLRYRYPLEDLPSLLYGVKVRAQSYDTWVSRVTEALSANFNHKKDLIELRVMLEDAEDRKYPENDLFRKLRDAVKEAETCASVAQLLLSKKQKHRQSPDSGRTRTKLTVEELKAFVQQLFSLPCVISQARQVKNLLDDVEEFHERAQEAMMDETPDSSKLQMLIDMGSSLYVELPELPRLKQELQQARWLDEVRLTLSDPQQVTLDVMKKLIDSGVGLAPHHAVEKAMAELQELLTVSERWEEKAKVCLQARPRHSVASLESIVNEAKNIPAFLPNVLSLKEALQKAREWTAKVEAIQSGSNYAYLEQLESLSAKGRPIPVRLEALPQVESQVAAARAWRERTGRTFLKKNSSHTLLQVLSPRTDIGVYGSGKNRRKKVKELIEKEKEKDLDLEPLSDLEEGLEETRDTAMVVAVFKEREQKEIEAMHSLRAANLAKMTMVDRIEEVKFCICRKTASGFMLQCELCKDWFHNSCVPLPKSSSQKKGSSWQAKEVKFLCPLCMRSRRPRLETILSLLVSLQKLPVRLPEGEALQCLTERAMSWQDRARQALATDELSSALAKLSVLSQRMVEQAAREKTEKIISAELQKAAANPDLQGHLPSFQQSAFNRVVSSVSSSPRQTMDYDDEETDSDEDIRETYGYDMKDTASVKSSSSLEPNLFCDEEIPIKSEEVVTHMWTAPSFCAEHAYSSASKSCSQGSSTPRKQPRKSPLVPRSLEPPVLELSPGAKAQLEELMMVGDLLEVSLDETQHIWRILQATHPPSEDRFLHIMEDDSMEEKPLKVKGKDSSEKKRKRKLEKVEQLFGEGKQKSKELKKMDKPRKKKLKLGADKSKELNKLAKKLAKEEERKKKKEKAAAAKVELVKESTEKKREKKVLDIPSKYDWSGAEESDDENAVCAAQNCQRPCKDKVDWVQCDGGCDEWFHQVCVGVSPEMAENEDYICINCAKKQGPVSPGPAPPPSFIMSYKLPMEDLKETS

Structure (SMILES)	IC50
CCc1c(C)[nH]c2c(-c3cnn(-c4nccc(N5CCCC5)n4)c3)cnn2c1=O [Example 6, 6-ethyl-5-methyl-3-(1-(4-(pyrrolidin-1-yl)pyrimidin-2-yl)-1H-pyrazol-4-yl)pyrazolo[1,5-a]pyrimidin-7(4H)-one]	52.9 nM
CCc1c(C)[nH]c2c(-c3cnn(-c4cc(OCCN)ccn4)c3)cnn2c1=O [Example 18, 3-(1-(4-(2-aminoethoxy)pyridin-2-yl)-1H-pyrazol-4-yl)-6-ethyl-5-methylpyrazolo[1,5-a]pyrimidin-7(4H)-one]	9.8 nM
CCc1c(C)[nH]c2c(-c3cnn(-c4ccncn4)c3)cnn2c1=O [Example 3, 6-ethyl-5-methyl-3-(1-(pyrimidin-4-yl)-1H-pyrazol-4-yl)pyrazolo[1,5-a]pyrimidin-7(4H)-one]	158 nM
CCc1c(C)[nH]c2c(-c3cnn(-c4cc(Cl)ccn4)c3)cnn2c1=O [Example 13, 3-(1-(4-chloropyridin-2-yl)-1H-pyrazol-4-yl)-6-ethyl-5-methylpyrazolo[1,5-a]pyrimidin-7(4H)-one]	66.1 nM
CCc1c(C)[nH]c2c(-c3cnn(-c4ncc(N(C)C)cn4)c3)cnn2c1=O [Example 5, 3-(1-(5-(dimethylamino)pyrimidin-2-yl)-1H-pyrazol-4-yl)-6-ethyl-5-methylpyrazolo[1,5-a]pyrimidin-7(4H)-one]	60.3 nM
CCc1c(C)[nH]c2c(-c3cnn(-c4cc(N(C)C)ccn4)c3)cnn2c1=O [Example 16, 3-(1-(4-(dimethylamino)pyridin-2-yl)-1H-pyrazol-4-yl)-6-ethyl-5-methylpyrazolo[1,5-a]pyrimidin-7(4H)-one]	406 nM
CCc1c(C)[nH]c2c(-c3cnn(-c4ncccn4)c3)cnn2c1=O [Example 14, 6-ethyl-5-methyl-3-(1-(pyrimidin-2-yl)-1H-pyrazol-4-yl)pyrazolo[1,5-a]pyrimidin-7(4H)-one]	16.5 nM
CCc1c(C)[nH]c2c(-c3cnn(-c4nccc(OC)n4)c3)cnn2c1=O [Example 7, 6-ethyl-3-(1-(4-methoxypyrimidin-2-yl)-1H-pyrazol-4-yl)-5-methylpyrazolo[1,5-a]pyrimidin-7(4H)-one]	8.6 nM
CCc1c(C)[nH]c2c(-c3cnn(-c4cc(C(=O)O)ccn4)c3)cnn2c1=O [Example 10, 2-(4-(6-ethyl-5-methyl-7-oxo-4,7-dihydropyrazolo[1,5-a]pyrimidin-3-yl)-1H-pyrazol-1-yl)isonicotinic acid]	201 nM
CCc1c(C)[nH]c2c(-c3cnn(-c4cc(OCCO)ccn4)c3)cnn2c1=O [Example 17, 6-ethyl-3-(1-(4-(2-hydroxyethoxy)pyridin-2-yl)-1H-pyrazol-4-yl)-5-methylpyrazolo[1,5-a]pyrimidin-7(4H)-one]	14.1 nM
CCc1c(C)[nH]c2c(-c3cnn(-c4nccs4)c3)cnn2c1=O [Example 8, 6-ethyl-5-methyl-3-(1-(thiazol-2-yl)-1H-pyrazol-4-yl)pyrazolo[1,5-a]pyrimidin-7(4H)-one]	136 nM
CCc1c(C)[nH]c2c(-c3cnn(-c4cc(OC)ccn4)c3)cnn2c1=O [Example 15, 6-ethyl-3-(1-(4-methoxypyridin-2-yl)-1H-pyrazol-4-yl)-5-methylpyrazolo[1,5-a]pyrimidin-7(4H)-one]	66.1 nM
CCc1c(C)[nH]c2c(-c3cnn(-c4ccc(CO)cn4)c3)cnn2c1=O [Example 12, 6-ethyl-3-(1-(5-(hydroxymethyl)pyridin-2-yl)-1H-pyrazol-4-yl)-5-methylpyrazolo[1,5-a]pyrimidin-7(4H)-one]	31.3 nM
CCc1c(C)[nH]c2c(-c3cnn(-c4nccc(N(C)C)n4)c3)cnn2c1=O [Example 4, 3-(1-(4-(dimethylamino)pyrimidin-2-yl)-1H-pyrazol-4-yl)-6-ethyl-5-methylpyrazolo[1,5-a]pyrimidin-7(4H)-one]	47 nM
CCc1c(C)[nH]c2c(-c3cnn(-c4cc(C5CC5)ccn4)c3)cnn2c1=O [Example 9, 3-(1-(4-cyclopropylpyridin-2-yl)-1H-pyrazol-4-yl)-6-ethyl-5-methylpyrazolo[1,5-a]pyrimidin-7(4H)-one]	16.6 nM
Cc1[nH]c2c(-c3cnn(-c4ncccn4)c3)cnn2c(=O)c1C(C)C [Example 19, 6-isopropyl-5-methyl-3-(1-(pyrimidin-2-yl)-1H-pyrazol-4-yl)pyrazolo[1,5-a]pyrimidin-7(4H)-one]	5.7 nM
CCc1c(C)[nH]c2c(-c3cnn(-c4cc(CO)ccn4)c3)cnn2c1=O [Example 11, 6-ethyl-3-(1-(4-(hydroxymethyl)pyridin-2-yl)-1H-pyrazol-4-yl)-5-methylpyrazolo[1,5-a]pyrimidin-7(4H)-one]	2.3 nM

Continued, values first:

IC50	Structure (SMILES)
16.6 nM	Cc1cnc(-n2cc(-c3cnn4c(=O)c(C(C)C)c(C)[nH]c34)cn2)nc1 [Example 24, 6-isopropyl-5-methyl-3-(1-(5-methylpyrimidin-2-yl)-1H-pyrazol-4-yl)pyrazolo[1,5-a]pyrimidin-7(4H)-one]
7.9 nM	Cc1[nH]c2c(-c3cnn(-c4ccc(CO)cn4)c3)cnn2c(=O)c1C1CC1 [Example 32, 6-cyclopropyl-3-(1-(5-(hydroxymethyl)pyridin-2-yl)-1H-pyrazol-4-yl)-5-methylpyrazolo[1,5-a]pyrimidin-7(6H)-one]
23.6 nM	Cc1ccnc(-n2cc(-c3cnn4c(=O)c(C(C)C)c(C)[nH]c34)cn2)c1 [Example 22, 6-isopropyl-5-methyl-3-(1-(4-methylpyridin-2-yl)-1H-pyrazol-4-yl)pyrazolo[1,5-a]pyrimidin-7(4H)-one]
18.5 nM	Cc1[nH]c2c(-c3cnn(-c4ncccn4)c3)cnn2c(=O)c1C1CC1 [Example 29, 6-cyclopropyl-5-methyl-3-(1-(pyrimidin-2-yl)-1H-pyrazol-4-yl)pyrazolo[1,5-a]pyrimidin-7(6H)-one]
169 nM	CCc1[nH]c2c(-c3cnn(-c4ccccn4)c3)cnn2c(=O)c1CC [Example 63, 5,6-diethyl-3-[1-(2-pyridyl)pyrazol-4-yl]-4H-pyrazolo[1,5-a]pyrimidin-7-one]
8.3 nM	Cc1[nH]c2c(-c3cnn(-c4ccccn4)c3)cnn2c(=O)c1C(C)C [Example 20, 6-isopropyl-5-methyl-3-(1-(pyridin-2-yl)-1H-pyrazol-4-yl)pyrazolo[1,5-a]pyrimidin-7(4H)-one]
335 nM	CCc1[nH]c2c(-c3cnn(-c4ccccn4)c3)cnn2c(=O)c1C [Example 37, 5-ethyl-6-methyl-3-(1-(pyridin-2-yl)-1H-pyrazol-4-yl)pyrazolo[1,5-a]pyrimidin-7(4H)-one]
543 nM	CCc1c(C)[nH]c2c(-c3cnn(C(=O)C(C)(C)C)c3)cnn2c1=O [Example 35, 6-ethyl-5-methyl-3-(1-pivaloyl-1H-pyrazol-4-yl)pyrazolo[1,5-a]pyrimidin-7(4H)-one]
101 nM	COc1c(C)[nH]c2c(-c3cnn(-c4ccccn4)c3)cnn2c1=O [Example 40, 6-methoxy-5-methyl-3-(1-(pyridin-2-yl)-1H-pyrazol-4-yl)pyrazolo[1,5-a]pyrimidin-7(4H)-one]
1000 nM	Cc1c(C(C)C)[nH]c2c(-c3cnn(-c4ccccn4)c3)cnn2c1=O [Example 38, 5-isopropyl-6-methyl-3-(1-(pyridin-2-yl)-1H-pyrazol-4-yl)pyrazolo[1,5-a]pyrimidin-7(4H)-one]
5.1 nM	CCc1c(C)[nH]c2c(-c3cnn(-c4ccc(C)cn4)c3)cnn2c1=O [Example 65, 6-ethyl-5-methyl-3-[1-(5-methyl-2-pyridyl)pyrazol-4-yl]-4H-pyrazolo[1,5-a]pyrimidin-7-one]
6.6 nM	Cc1[nH]c2c(-c3cnn(-c4ccc(CO)cn4)c3)cnn2c(=O)c1C(C)C [Example 25, 3-(1-(5-(hydroxymethyl)pyridin-2-yl)-1H-pyrazol-4-yl)-6-isopropyl-5-methylpyrazolo[1,5-a]pyrimidin-7(4H)-one]
1000 nM	CCc1c(C)[nH]c2c(-c3cnn(C(=O)OC)c3)cnn2c1=O [Example 36, Methyl 4-(6-ethyl-5-methyl-7-oxo-4,7-dihydropyrazolo[1,5-a]pyrimidin-3-yl)-1H-pyrazole-1-carboxylate]
66.1 nM	Cc1[nH]c2c(-c3cnn(-c4ccccn4)c3)cnn2c(=O)c1C [Example 61, 5,6-dimethyl-3-[1-(2-pyridyl)pyrazol-4-yl]-4H-pyrazolo[1,5-a]pyrimidin-7-one]
54.3 nM	Cc1ccnc(-n2cc(-c3cnn4c(=O)c(C(C)C)c(C)[nH]c34)cn2)n1 [Example 23, 6-isopropyl-5-methyl-3-(1-(4-methylpyrimidin-2-yl)-1H-pyrazol-4-yl)pyrazolo[1,5-a]pyrimidin-7(4H)-one]
196 nM	CCc1c(C)[nH]c2c(-c3cnn(C(C)=O)c3)cnn2c1=O [Example 33, 3-(1-acetyl-1H-pyrazol-4-yl)-6-ethyl-5-methylpyrazolo[1,5-a]pyrimidin-7(4H)-one]
830 nM	Cc1[nH]c2c(-c3cnn(-c4ccccn4)c3)cnn2c(=O)c1C#N [Example 64, 5-methyl-7-oxo-3-[1-(2-pyridyl)pyrazol-4-yl]-4H-pyrazolo[1,5-a]pyrimidine-6-carbonitrile]
9.1 nM	Cc1ccc(-n2cc(-c3cnn4c(=O)c(C(C)C)c(C)[nH]c34)cn2)nc1 [Example 21, 6-isopropyl-5-methyl-3-(1-(5-methylpyridin-2-yl)-1H-pyrazol-4-yl)pyrazolo[1,5-a]pyrimidin-7(4H)-one]
4.8 nM	Cc1ccnc(-n2cc(-c3cnn4c(=O)c(C5CC5)c(C)[nH]c34)cn2)n1 [Example 30, 6-cyclopropyl-5-methyl-3-(1-(4-methylpyrimidin-2-yl)-1H-pyrazol-4-yl)pyrazolo[1,5-a]pyrimidin-7(6H)-one]
624 nM	Cc1c(C2CC2)[nH]c2c(-c3cnn(-c4ccccn4)c3)cnn2c1=O [Example 39, 5-cyclopropyl-6-methyl-3-(1-(pyridin-2-yl)-1H-pyrazol-4-yl)pyrazolo[1,5-a]pyrimidin-7(4H)-one]
4.1 nM	CCc1c(CO)[nH]c2c(-c3cnn(-c4ccccn4)c3)cnn2c1=O [Example 41, 6-ethyl-5-(hydroxymethyl)-3-(1-(pyridin-2-yl)-1H-pyrazol-4-yl)pyrazolo[1,5-a]pyrimidin-7(4H)-one]
